The target in one experiment is T1, ALK (Homo sapiens, UniProt Q9UM73).
T1 construct: host or cells: baculovirus expression system
In words: ALK Kinase Assay (ELISA/TRF, PLC-γ substrate). It is filed as biochemical. The conditions noted are these: ALK kinase inhibition, 1 μM ATP; read-out: ALK Potency. In outline:
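PLC-γ coat 10 μg/mL in TBS; ALK 30 ng/ml added to start; 37° C, 15 min; Eu-N1 PT66 antibody detection (TRF). IC50: % inhibition vs log10 [cpd], variable-slope sigmoidal fit.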
Background: ELISA stands for enzyme-linked immunosorbent assay.

Another experiment concerns the target T2, JAK2 (Homo sapiens, UniProt O60674).
T2 construct: host or cells: baculovirus expression system
The experiment can be described thus: Recombinant Human JAK2 Kinase Assay (TRF). It is filed as biochemical. The conditions noted are these: JAK2 kinase inhibition, 0.2 μM ATP; read-out: JAK2 Potency. In outline: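 Baculovirus-expressed JAK2 (15 ng/ml) phosphorylated a biotinylated 15-mer peptide captured on Neutravidin, in 20 mM HEPES pH 7.2, 0.2 μM ATP, 1 mM MnCl2, 0.1% BSA, 2.5% DMSO final, 20 min at room temperature. Phosphoproduct detected by time-resolved fluorescence with Eu-N1-labelled PY100 antibody.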

The structures appear in SMILES notation.

In US8471005B2 (Cephalon, Inc., priority 2008, dated 2013) one finds IC50 data, which are given here for 19 compounds.

T2 sequence (O60674 whole entry): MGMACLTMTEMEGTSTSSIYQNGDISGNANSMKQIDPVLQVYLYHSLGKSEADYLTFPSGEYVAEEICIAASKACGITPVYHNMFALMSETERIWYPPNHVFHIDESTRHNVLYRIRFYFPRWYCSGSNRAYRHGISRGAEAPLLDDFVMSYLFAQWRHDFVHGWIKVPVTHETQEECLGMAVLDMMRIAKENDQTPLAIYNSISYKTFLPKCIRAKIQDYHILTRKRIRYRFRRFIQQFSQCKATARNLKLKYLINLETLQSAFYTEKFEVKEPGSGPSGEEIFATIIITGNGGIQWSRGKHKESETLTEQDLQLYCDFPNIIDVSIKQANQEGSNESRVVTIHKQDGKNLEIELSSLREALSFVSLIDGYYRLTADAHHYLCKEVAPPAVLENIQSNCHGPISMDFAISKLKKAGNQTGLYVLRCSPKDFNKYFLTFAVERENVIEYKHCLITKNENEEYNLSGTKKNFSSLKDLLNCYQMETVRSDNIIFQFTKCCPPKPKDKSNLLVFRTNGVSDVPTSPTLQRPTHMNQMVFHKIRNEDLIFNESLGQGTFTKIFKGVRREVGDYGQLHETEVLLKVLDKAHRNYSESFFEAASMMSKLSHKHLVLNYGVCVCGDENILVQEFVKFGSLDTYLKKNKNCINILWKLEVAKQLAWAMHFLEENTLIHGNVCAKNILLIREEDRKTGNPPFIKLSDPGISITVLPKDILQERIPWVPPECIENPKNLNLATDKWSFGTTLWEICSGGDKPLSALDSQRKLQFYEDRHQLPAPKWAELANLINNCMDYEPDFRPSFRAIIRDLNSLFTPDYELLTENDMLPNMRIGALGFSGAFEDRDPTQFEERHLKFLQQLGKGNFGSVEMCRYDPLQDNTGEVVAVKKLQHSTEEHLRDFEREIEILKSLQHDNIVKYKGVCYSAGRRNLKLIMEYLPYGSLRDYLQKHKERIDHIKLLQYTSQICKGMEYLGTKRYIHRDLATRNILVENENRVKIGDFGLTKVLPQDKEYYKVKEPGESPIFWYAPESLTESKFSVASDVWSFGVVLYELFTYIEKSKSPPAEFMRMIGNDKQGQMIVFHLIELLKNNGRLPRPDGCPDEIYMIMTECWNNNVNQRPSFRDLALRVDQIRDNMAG
T1 sequence (Q9UM73 19-1620): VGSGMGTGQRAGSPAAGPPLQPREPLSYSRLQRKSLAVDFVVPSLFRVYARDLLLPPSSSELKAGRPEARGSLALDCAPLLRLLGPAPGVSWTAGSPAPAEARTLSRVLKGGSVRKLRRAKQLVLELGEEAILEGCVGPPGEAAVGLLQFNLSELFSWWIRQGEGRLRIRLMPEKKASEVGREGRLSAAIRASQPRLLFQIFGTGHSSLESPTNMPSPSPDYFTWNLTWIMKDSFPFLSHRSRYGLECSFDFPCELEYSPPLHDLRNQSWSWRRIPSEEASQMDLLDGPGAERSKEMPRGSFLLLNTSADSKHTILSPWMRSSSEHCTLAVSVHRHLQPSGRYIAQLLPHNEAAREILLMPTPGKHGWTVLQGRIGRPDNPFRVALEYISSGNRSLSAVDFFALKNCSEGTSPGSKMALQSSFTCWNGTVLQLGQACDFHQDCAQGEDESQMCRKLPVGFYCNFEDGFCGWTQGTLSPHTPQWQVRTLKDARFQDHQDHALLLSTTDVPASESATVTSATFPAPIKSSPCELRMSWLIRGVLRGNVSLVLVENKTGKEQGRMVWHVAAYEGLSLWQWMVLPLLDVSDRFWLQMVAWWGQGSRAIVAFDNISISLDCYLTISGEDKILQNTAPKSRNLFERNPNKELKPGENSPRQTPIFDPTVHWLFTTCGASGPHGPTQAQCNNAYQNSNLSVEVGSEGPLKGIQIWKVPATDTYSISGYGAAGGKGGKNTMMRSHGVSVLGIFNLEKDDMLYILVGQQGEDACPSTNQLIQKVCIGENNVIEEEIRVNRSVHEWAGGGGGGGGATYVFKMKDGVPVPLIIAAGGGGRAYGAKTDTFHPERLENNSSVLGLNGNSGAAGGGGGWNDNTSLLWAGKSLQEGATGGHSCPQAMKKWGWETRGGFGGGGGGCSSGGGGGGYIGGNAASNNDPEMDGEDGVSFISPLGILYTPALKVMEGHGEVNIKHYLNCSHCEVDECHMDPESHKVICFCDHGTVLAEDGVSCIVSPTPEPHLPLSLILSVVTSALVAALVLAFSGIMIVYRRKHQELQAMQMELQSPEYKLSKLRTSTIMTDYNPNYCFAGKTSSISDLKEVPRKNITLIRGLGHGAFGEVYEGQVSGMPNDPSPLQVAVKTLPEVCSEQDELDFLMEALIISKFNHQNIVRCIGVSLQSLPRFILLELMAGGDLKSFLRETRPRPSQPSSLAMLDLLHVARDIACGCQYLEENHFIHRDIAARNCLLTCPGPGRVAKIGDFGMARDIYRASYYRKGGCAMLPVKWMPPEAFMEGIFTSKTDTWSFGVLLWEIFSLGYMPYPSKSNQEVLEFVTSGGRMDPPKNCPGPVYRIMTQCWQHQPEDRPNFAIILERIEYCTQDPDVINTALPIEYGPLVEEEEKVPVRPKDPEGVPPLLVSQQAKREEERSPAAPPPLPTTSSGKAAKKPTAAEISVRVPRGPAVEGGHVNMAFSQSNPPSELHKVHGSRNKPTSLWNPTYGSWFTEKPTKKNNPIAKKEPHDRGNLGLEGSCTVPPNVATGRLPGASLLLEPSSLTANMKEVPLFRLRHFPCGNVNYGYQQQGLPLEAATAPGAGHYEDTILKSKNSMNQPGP

For the compound `COc1ccncc1-c1ccc2cnc(Nc3ccc(N4CCOCC4)cc3)nn12` [Example 1211, [7-(4-Methoxy-pyridin-3-yl)-pyrrolo[2,1-f][1,2,4]triazin-2-yl]-(4-morpholin-4-yl-phenyl)-amine], the IC50 was 1000 to 10000 nM on ALK and below 100 nM on JAK2.

For the compound `CN1CCN(CCn2cc(Nc3ncc4ccc(-c5ccccc5N(C)S(C)(=O)=O)n4n3)cn2)CC1` [Example 1212, N-Methyl-N-[2-(2-{1-[2-(4-methyl-piperazin-1-yl)-ethyl]-1H-pyrazol-4-ylamino}-pyrrolo[2,1-f][1,2,4]triazin-7-yl)-phenyl]-methanesulfonamide], the IC50 is 100 to 1000 nM on ALK and below 100 nM on JAK2.

As to `CN1CCN(CCn2cc(Nc3ncc4ccc(-c5cnn(C)c5)n4n3)cn2)CC1` [Example 1213, {1-[2-(4-Methyl-piperazin-1-yl)-ethyl]-1H-pyrazol-4-yl}-[7-(1-methyl-1H-pyrazol-4-yl)-pyrrolo[2,1-f][1,2,4]triazin-2-yl]-amine], the IC50 on ALK was 100 to 1000 nM; at JAK2, below 100 nM.

Turning to `COc1ccc(-c2ccc3cnc(Nc4ccc(CN5CCN(C)CC5)cc4)nn23)cn1` [Example 1214, [7-(6-Methoxy-pyridin-3-yl)-pyrrolo[2,1-f][1,2,4]triazin-2-yl]-[4-(4-methyl-piperazin-1-ylmethyl)-phenyl]-amine], the values for the IC50 on ALK and at JAK2 were 100 to 1000 nM and below 100 nM, respectively.

`CN1CCN(c2ccc(Nc3ncc4ccc(-c5cnn(C)c5)n4n3)cc2F)CC1` [Example 1215, [3-Fluoro-4-(4-methyl-piperazin-1-yl)-phenyl]-[7-(1-methyl-1H-pyrazol-4-yl)-pyrrolo[2,1-f][1,2,4]triazin-2-yl]-amine]: the IC50 was 100 to 1000 nM on ALK and below 100 nM at JAK2.

Take `CN1CCN(c2ccc(Nc3ncc4ccc(-c5cnccc5NS(C)(=O)=O)n4n3)cc2)CC1` [Example 1218, N-(3-{2-[4-(4-Methyl-piperazin-1-yl)-phenylamino]-pyrrolo[2,1-f][1,2,4]triazin-7-yl}-pyridin-4-yl)-methanesulfonamide]: the IC50 at ALK is 1000 to 10000 nM; on JAK2 it was 100 to 1000 nM.

Regarding `CS(=O)(=O)Nc1ccncc1-c1ccc2cnc(Nc3ccc(N4CCOCC4)cc3)nn12` [Example 1219, N-{3-[2-(4-Morpholin-4-yl-phenylamino)-pyrrolo[2,1-f][1,2,4]triazin-7-yl]-pyridin-4-yl}-methanesulfonamide], the IC50 on ALK fell in the range of 1000 to 10000 nM; on JAK2, 100 to 1000 nM.

In the case of `COc1cc(CN2CCOCC2)ccc1Nc1ncc2ccc(-c3ccccc3OC)n2n1` [Example 1220, (2-Methoxy-4-morpholin-4-ylmethyl-phenyl)-[7-(2-methoxy-phenyl)-pyrrolo[2,1-f][1,2,4]triazin-2-yl]-amine], the values for the IC50 at ALK and on JAK2 were below 100 nM and 100 to 1000 nM, respectively.

In the case of `COc1cc(CN2CCOCC2)ccc1Nc1ncc2ccc(-c3ccccc3N(C)S(C)(=O)=O)n2n1` [Example 1221, N-{2-[2-(2-Methoxy-4-morpholin-4-ylmethyl-phenylamino)-pyrrolo[2,1-f][1,2,4]triazin-7-yl]-phenyl}-N-methyl-methanesulfonamide], the values for the IC50 on ALK and at JAK2 were below 100 nM and 1000 to 10000 nM, respectively.

On to `COc1cc(CN2CCN(C(=O)OC(C)(C)C)CC2)ccc1Nc1ncc2ccc(-c3ccccc3N(C)S(C)(=O)=O)n2n1` [Example 1222, 4-(4-{7-[2-(Methanesulfonyl-methyl-amino)-phenyl]-pyrrolo[2,1-f][1,2,4]triazin-2-ylamino}-3-methoxy-benzyl)-piperazine-1-carboxylic acid tert-butyl ester], for which the IC50 on ALK was below 100 nM; on JAK2 it was 1000 to 10000 nM.

On to `COc1cc(CN2CCNCC2)ccc1Nc1ncc2ccc(-c3ccccc3N(C)S(C)(=O)=O)n2n1` [Example 1223, N-{2-[2-(2-Methoxy-4-piperazin-1-ylmethyl-phenylamino)-pyrrolo[2,1-f][1,2,4]triazin-7-yl]-phenyl}-N-methyl-methanesulfonamide], for which the IC50 is below 100 nM on ALK and 1000 to 10000 nM on JAK2.

For the compound `COc1cc(CN2CCN(C[C@H](C)O)CC2)ccc1Nc1ncc2ccc(-c3ccccc3N(C)S(C)(=O)=O)n2n1` [Example 1224, N-[2-(2-{4-[4-((S)-2-Hydroxy-propyl)-piperazin-1-ylmethyl]-2-methoxy-phenylamino}-pyrrolo[2,1-f][1,2,4]triazin-7-yl)-phenyl]-N-methyl-methanesulfonamide], the results for the IC50 on ALK and on JAK2 were below 100 nM and 1000 to 10000 nM, respectively.

Turning to `COC[C@H](O)CN1CCN(Cc2ccc(Nc3ncc4ccc(-c5ccccc5N(C)S(C)(=O)=O)n4n3)c(OC)c2)CC1` [Example 1225, N-[2-(2-{4-[4-((R)-2-Hydroxy-3-methoxy-propyl)-piperazin-1-ylmethyl]-2-methoxy-phenylamino}-pyrrolo[2,1-f][1,2,4]triazin-7-yl)-phenyl]-N-methyl-methanesulfonamide], the IC50 on ALK was below 100 nM; on JAK2, 1000 to 10000 nM.

`COc1cc(CN2CCN(C[C@H](C)O)CC2)ccc1Nc1ncc2ccc(-c3ccccc3OC)n2n1` [Example 1226, (S)-1-(4-{3-Methoxy-4-[7-(2-methoxy-phenyl)-pyrrolo[2,1-f][1,2,4]triazin-2-ylamino]-benzyl}-piperazin-1-yl)-propan-2-ol]: the results for the IC50 on ALK and on JAK2 were below 100 nM and 100 to 1000 nM, respectively.

As to `COC[C@H](O)CN1CCN(Cc2ccc(Nc3ncc4ccc(-c5ccccc5OC)n4n3)c(OC)c2)CC1` [Example 1227, (R)-1-Methoxy-3-(4-{3-methoxy-4-[7-(2-methoxy-phenyl)-pyrrolo[2,1-f][1,2,4]triazin-2-ylamino]-benzyl}-piperazin-1-yl)-propan-2-ol], the IC50 at ALK is below 100 nM; at JAK2 it was 100 to 1000 nM.

On to `COc1cc(CN2CCN(C[C@@H](O)CO)CC2)ccc1Nc1ncc2ccc(-c3ccccc3N(C)S(C)(=O)=O)n2n1` [Example 1228, N-[2-(2-{4-[4-((R)-2,3-Dihydroxy-propyl)-piperazin-1-ylmethyl]-2-methoxy-phenylamino}-pyrrolo[2,1-f][1,2,4]triazin-7-yl)-phenyl]-N-methyl-methanesulfonamide], for which the IC50 at ALK is below 100 nM; on JAK2, 100 to 1000 nM.

Consider `Cc1nn(C)cc1-c1ccc2cnc(Nc3ccc(N4CCN(C)CC4)cc3)nn12` [Example 1229, [7-(1,3-Dimethyl-1H-pyrazol-4-yl)-pyrrolo[2,1-f][1,2,4]triazin-2-yl]-[4-(4-methyl-piperazin-1-yl)-phenyl]-amine], for which the IC50 at ALK is 100 to 1000 nM; at JAK2, below 100 nM.

On to `COc1c(Nc2ncc3ccc(-c4ccccc4N(C)S(C)(=O)=O)n3n2)cccc1C(=O)N1CCN(C)CC1` [Example 1230, N-(2-{2-[2-Methoxy-3-(4-methyl-piperazine-1-carbonyl)-phenylamino]-pyrrolo[2,1-f][1,2,4]triazin-7-yl}-phenyl)-N-methyl-methanesulfonamide], for which the IC50 is 100 to 1000 nM at ALK and above 10000 nM at JAK2.

As to `COc1ccccc1-c1ccc2cnc(Nc3cccc(C(=O)N4CCN(C)CC4)c3OC)nn12` [Example 1231, {2-Methoxy-3-[7-(2-methoxy-phenyl)-pyrrolo[2,1-f][1,2,4]triazin-2-ylamino]-phenyl}-(4-methyl-piperazin-1-yl)-methanone], the IC50 lay within 100 to 1000 nM at ALK and 1000 to 10000 nM on JAK2.
